≈ marks a conversion by molar mass, not a printed value.
Legend:
[1] = tested on: LNCaP (prostate); test: Cytotoxicity against cultured LNCaP cells (SRB); format: cell-based, human
[2] = tested on: KB (human oral epidermoid carcinoma); test: Cytotoxicity against cultured KB cells (SRB); format: cell-based
Protocol: (§1) Cytotoxicity of the crude extracts and purified compounds was determined in a number of cultured human cancer cell lines. Table 1 sets forth the various types of cancer cells evaluated using Method A. The cells were cultured in appropriate media and under standard conditions. To maintain logarithmic growth, the media were changed 24 hours prior to cytotoxic assays. On the day of the assay, the cells were harvested by trypsinization, counted, diluted in media, and added to 96-well plates containing test compounds dissolved in DMSO. The final DMSO concentration was 0.05%.
(§2) In each of Methods A-C, the plates were incubated for three days. Following the incubation period, the cells were fixed and stained with sulforhodamine B (SRB) dye. The bound dye was liberated with Tris base, and the OD515 (optical density at 515 nm) was measured on an ELISA reader. The growth of the betulinic acid-treated cells was determined by the OD515 values, and the growth was compared to the OD515 values of […] control cells of Methods A-C. Dose response studies were performed to generate ED50 values. As used herein, the term OD515 is defined as optical density at 515 nm, and the term ED50 is defined as the concentration of a compound required to reduce cell number by 50%.

[3] = tested on: MEL-2 (melanoma); test: Cytotoxicity against cultured MEL-2 cells (SRB); format: cell-based, human; conditions: Homo sapiens, MEL2, 72 h, Method A, sample dissolved in DMSO; three days incubation; read-out: ED50 MEL-2
Protocol: as §1, §2

[4] = 200 and 400 mg/kg doses; cited from earlier work
[5] = tested on: A431 (squamous cells); test: Cytotoxicity against cultured A431 cells (SRB); format: cell-based, human
Protocol: as §1, §2

[6] = tested on: COL-2 (colon); test: Cytotoxicity against cultured COL-2 cells (SRB); format: cell-based, human; conditions: Method B, sample dissolved in tissue culture media
[7] = tested on: MEL-4 human melanoma cell line; test: Cytotoxicity against cultured MEL-4 cells (SRB); format: cell-based
Protocol: as §1, §2

[8] = tested on: MEL-3 human melanoma cell line; test: Cytotoxicity against cultured MEL-3 cells; format: cell-based; conditions: dose-response study
Protocol: as §2

[9] = tested on: MEL-1 human melanoma cell line; test: Cytotoxicity against cultured MEL-1 cells (SRB); format: cell-based
Protocol: as §1, §2

[10] = tested on: COL-2 (colon); test: Cytotoxicity against cultured COL-2 cells (SRB); format: cell-based, human; conditions: Homo sapiens, Col2, 72 h, Method A, sample dissolved in DMSO; three days incubation; read-out: ED50 COL-2
Protocol: as §1, §2

[11] = tested on: ZR-75-1 (breast); test: Cytotoxicity against cultured ZR-75-1 cells (SRB); format: cell-based, human
[12] = mouse, in vivo, 500 mg/kg
Protocol: In particular, the data was derived from experiments wherein four week old athymic mice were injected subcutaneously in the right flank with 3.0×10^8 UISO MEL-2 cells. UISO MEL-2 is a cell line derived from metastatic melanoma from human pleural fluid. Drug treatment was initiated on the day following tumor cell injection and continued every fourth day for a total of six doses. […] The mice were weighed, and the tumors measured with a micrometer every other day throughout the study. All animals were sacrificed and autopsied on day 33, when the mean tumor volume in the control animals was approximately one cm^3.

[13] = tested on: LNCaP (prostate); test: Cytotoxicity against cultured LNCaP cells (SRB); format: cell-based, human; conditions: Method A, sample dissolved in DMSO; three days incubation
Protocol: as §1, §2

[14] = tested on: U373 (glioma); test: Cytotoxicity against cultured U373 cells (SRB); format: cell-based, human; conditions: Method A, sample dissolved in DMSO; three days incubation
Protocol: as §1, §2

[15] = tested on: BC-1 (breast); test: Cytotoxicity against cultured BC-1 cells (SRB); format: cell-based, human; conditions: Homo sapiens, BC1, 72 h; Method A, sample dissolved in DMSO; three days incubation; read-out: ED50 BC-1
Protocol: as §1
In each of Methods A-C, the plates were incubated for three days. Following the incubation period, the cells were fixed and stained with sulforhodamine B (SRB) dye. The bound dye was liberated with Tris base, and the OD515 (optical density at 515 nm) was measured on an ELISA reader. […] Dose response studies were performed to generate ED50 values. As used herein, the term OD515 is defined as optical density at 515 nm, and the term ED50 is defined as the concentration of a compound required to reduce cell number by 50%.

[16] = tested on: U373 (glioma); test: Cytotoxicity against cultured U373 cells (SRB); format: cell-based, human
[17] = tested on: human neuroblastoma cell lines; test: Cytotoxic activity against neuroblastoma cell lines; format: cell-based
[18] = tested on: HT-1080 (sarcoma); test: Cytotoxicity against cultured HT-1080 cells (SRB); format: cell-based, human
Protocol: as §1, §2

[19] = tested on: ZR-75-1 (breast); test: Cytotoxicity against cultured ZR-75-1 cells (SRB); format: cell-based, human; conditions: Homo sapiens, ZR-75-1, 72 h; Method A, sample dissolved in DMSO; three days incubation; read-out: ED50 ZR 75-1
Protocol: as §1, §2

[20] = tested on: BC-1 (breast); test: Cytotoxicity against cultured BC-1 cells (SRB); format: cell-based, human; conditions: Method B, sample dissolved in tissue culture media
[21] = tested on: MEL-2 (melanoma); test: Cytotoxicity against cultured MEL-2 cells (SRB); format: cell-based, human
[22] = tested on: UISO MEL-1 cells; test: In vivo study, MEL-1 tumors in athymic mice; conditions: 5, 50 or 250 mg/kg/dose IP betulinic acid/PVP every fourth day, six doses
Protocol: In particular, four-week-old athymic mice were injected subcutaneously in the right flank with 5.0×10^8 UISO MEL-1 cells. Drug treatment was initiated on the day following tumor cell injection and continued every fourth day for a total of six doses. […] The mice were weighed, and tumors were measured with a micrometer every third day throughout the study. Treated animals were sacrificed and autopsied on day 41, when the mean tumor volume in the control mice was approximately 0.5 cm^3. The control mice then received six doses of 50 mg/kg every fourth day beginning day 41 and were sacrificed and autopsied on day 71.
The results with respect to MEL-1 cells were similar to the results with respect to MEL-2 cells.

[23] = tested on: LU-1 (lung); test: Cytotoxicity against cultured LU-1 cells (SRB); format: cell-based, human
Protocol: as §1, §2

[24] = Method B, sample dissolved in tissue culture media
[25] = Method C, sample dissolved in 5% aqueous bovine serum albumin
[26] = Method A, sample dissolved in DMSO, three days incubation

## C=C(C)[C@@H]1CC[C@]2(C(=O)O)CC[C@]3(C)[C@H](CC[C@@H]4[C@@]5(C)CC[C@H](O)C(C)(C)[C@@H]5CC[C@]43C)[C@@H]12 [Betulinic acid, 3β-hydroxy-lup-20 (29)ene-28-oic acid]
[1]; [24]
  ED50 LNCaP: 19.3 mg/L (≈ 42.3 µM)
[1]; [25]
  ED50 LNCaP: 16.6 mg/L (≈ 36.3 µM)
[2]; [24]
  ED50 KB: >20 mg/L
[2]; [25]
  ED50 KB: 16.6 mg/L (≈ 36.3 µM)
[3]
  IC50: ~2 mg/L (≈ 4.38 µM)
[4]
  activity in Hippocratic screen: inactive
[5]; [26]
  ED50 A431: >20 mg/L
[5]; [24]
  ED50 A431: 12.1 mg/L (≈ 26.5 µM)
[5]; [25]
  ED50 A431: >20 mg/L
[6]
  ED50 Col2: 13.3 mg/L (≈ 29.1 µM)
[7]; [26]
  ED50 MEL-4: 4.8 mg/L (≈ 10.5 µM)
[7]; [24]
  ED50 Mel4: 1.6 mg/L (≈ 3.5 µM)
[8]
  ED50 MEL-3: 3.3 mg/L (≈ 7.23 µM)
[9]; [26]
  ED50 MEL-1: 1.1 mg/L (≈ 2.41 µM)
[9]; [24]
  ED50 Mel1: 0.9 mg/L (≈ 1.97 µM)
[10]
  IC50: > 20 mg/L
[11]; [24]
  ED50 ZA-75-1: 6.4 mg/L (≈ 14 µM)
[11]; [25]
  ED50 ZA-75-1: 6.9 mg/L (≈ 15.1 µM)
[12]
  acute toxicity and body weight: without causing acute signs of toxicity or a decrease in body weight
[13]
  ED50 LNCaP: >20 mg/L
[14]
  ED50 U373: >20 mg/L
[15]
  IC50: > 20 mg/L
[16]; [24]
  ED50 U373: 12.1 mg/L (≈ 26.5 µM)
[16]; [25]
  ED50 U373: 18.7 mg/L (≈ 40.9 µM)
[17]
  cytotoxic activity against human neuroblastoma cell lines: excellent cytotoxic activity
[18]; Homo sapiens, HT-1080, 72 h, Method A, sample dissolved in DMSO, three days incubation, read-out: ED50 HT-1080
  IC50: > 20 mg/L
[18]; [24]
  ED50 HT: 11.3 mg/L (≈ 24.7 µM)
[18]; [25]
  ED50 HT: 10.0 mg/L (≈ 21.9 µM)
[19]
  IC50: > 20 mg/L
[20]
  ED50 BC1: 11.2 mg/L (≈ 24.5 µM)
[21]; [24]
  ED50 Mel2: 0.9 mg/L (≈ 1.97 µM)
[21]; [25]
  ED50 Mel2: 1.6 mg/L (≈ 3.5 µM)
[22]
  activity against MEL-1 tumors: active
[23]; Homo sapiens, Lu1, 72 h, Method A, sample dissolved in DMSO, three days incubation, read-out: ED50 LU-1
  IC50: > 20 mg/L
[23]; [24]
  ED50 Lu1: 7.7 mg/L (≈ 16.9 µM)
